Assay results from patent US11553718B2, “Mic reduction with lithium ions” (priority 2014, dated 2023).
Several values for one entry are separate records, joined by “and”; a condition that tells them apart may be missing. Identical values can stand only once. Like-named read-outs stand apart in the source and are kept apart here.

Columns and labels:
E. coli strain ATCC11229 = test: MIC determination / bacterial count in CaCO3 slurry with or without lithium ions; format: cell-based; conditions: for MIC ratio (MICwithout Li/MICLi): E. coli; for MIC: Escherichia coli; for bacterial count: E. coli ATCC11229
Description: (§1) When not otherwise indicated, the quoted bacterial counts (values are in cfu/plate) in the Tables here below are determined after 2 days following plate-out and incubation at 30° C. The counting method was as follows. The aqueous preparations were stirred well with a cotton swap (e.g. Applimed SA, No. 1102245); the excess aqueous preparation was removed by dipping it gently to the side of the aqueous preparation container, leaving approximately 200 mg of aqueous preparation on the swap. […] TSA plates were then incubated for 48 h at 30° C. Colony forming units (cfu) were then counted and reported as cfu/plate. Counts from 100 to 999 cfu per plate are reported as ≥100 cfu/plate. Counts of 1000 cfu and above per plate are reported as ≥1000 cfu/plate. Yeast and moulds were counted as described for bacteria with the following exceptions, a) Sabouraud Dextrose Agar (SDA) containing Chloramphenicol (e.g. heipha Dr. Miller GmbH, No. 1460030020) were used instead of TSA, b) SDA plates were incubated at 25° for 5 days and c) cfu were counted and reported after 48 h and 5 days of incubation. Yeast and moulds counts from 20 to 99 cfu per plate are reported as […]. Yeast and moulds counts of 100 cfu and above per plate are reported as >100 cfu/plate.
(§2) For determining the MIC, the tested microorganism, i.e. the strain of bacteria and/or strain of yeast and/or strain of mould, were freshly grown until the end of the logarithmic growth phase according to the requirements of the individual species to a density of approximately 10^7-10^9 cells/ml.
(§3) For example, fresh bacteria cultures of the bacteria E. coli, e.g. E. coli ATCC 11229, and S. aureus, e.g. S. aureus strains DSMZ 346, were prepared by inoculation of 3 ml liquid growth media (tryptic soy broth, e.g. Fluka Cat. No. 22092) from a stock culture and incubation for 16 to 20 h at 30° C. with agitation at 150 rotations per minutes (rpm) leading to a cell density of approximately 2×10^8 cells/ml. Fresh cultures of resistant bacteria, adapted to the conditions in biocide containing CaCO3 slurries, were prepared by inoculation of 50 g 75 wt.-% solid content CaCO3 slurry from a stock culture and incubated for 14 to 28 days at 30° C. without agitation.
(§4) Lithium ions were added to the aqueous preparation (e.g. CaCO3 slurry) by the addition of a water soluble lithium salt. For example to 50 g CaCO3 slurry with a solid content of 75% (w/w) 1.177 ml of a 74 g/Li2CO3 suspension was added and mixed well leading to a lithium ion concentration of 172 mM or 1205 ppm in the water phase. As another example to 50 g CaCO3 slurry with a solid content of 75 wt.-% (w/w) 0.04 ml of a 292 g/L Li3Citrate (2M) solution was added and mixed well leading to a lithium ion concentration of 19 mM or 135 ppm in the water phase.
(§5) The biocide to be tested was added to the aqueous preparation (e.g. CaCO3 slurry with or without lithium ions) in increasing concentrations starting from 0 ppm (without biocide). The concentrations ranged from concentrations higher than recommended by the supplier, to very low amounts (as low as 1 ppm or lower). Of each biocide concentration a 3 ml sample of aqueous preparation was combined with 20 μl fresh bacterial culture.
(§6) All samples were incubated at 30° C. for 24 h. After incubation colony forming units (cfu) per plate (cfu/plate) were determined as described above under bacterial count.
(§7) The MIC for bacteria is defined as the lowest concentration of biocide in the presence or absence of lithium ion amongst all samples tested, where the bacterial concentration dropped below 100 cfu/plate. The MIC for yeast and mould is defined as the lowest concentration of biocide in the presence or absence of lithium ion amongst all samples tested, where the microbial concentration dropped below 20 cfu/plate.

[1] = test system: S. aureus strain DSMZ 346; test: as above; format: cell-based; conditions: for MIC: Staphylococcus aureus, DSMZ346, S. aureus, read-out: MIC active/aequeous; for bacterial count: S. aureus DSMZ 346; for antimicrobial effect of lithium ions provided alone: S. aureus strain
Description: as §1, §2, §3, §4, §5, §6, §7

S. aureus = test: Curative MIC (bacteria added before biocide and lithium); format: cell-based; conditions: Curative treatment, Li^+ 329 mM (2305 ppm), Li2CO3
bacterial strain rOmyAK = test: microbe, parasite or virus in culture; format: cell-based, Pseudomonas mendocina; conditions: for MIC: Thioalkalivibrio paradoxus, read-out: MIC active/aequeous, rOmyAK; for MIC ratio (MICwithout Li/MICLi): rOmyAK
Description: as §1, §2, §3, §4, §5, §6, §7

rOPP strain = test: MIC determination in CaCO3 slurry with or without lithium ions; format: cell-based, Pseudomonas mendocina; conditions: Li2CO3; for MIC: Ectopseudomonas mendocina, read-out: MIC active/aequeous, rOPP; for MIC ratio (MICwithout Li/MICLi): rOPP
Description: as §1, §2, §3, §4, §5, §6, §7

[2] = S. aureus, Li^+ 329 mM (2305 ppm), Li2CO3
[3] = S. aureus, Li^+ 423 mM (2964 ppm), Li2CO3
[4] = ATCC11229, read-out: MIC active/aequeous, E. coli, Li^+ 197 mM (1380 ppm), Li2CO3
[5] = ATCC11229, read-out: MIC active/aequeous, E. coli, no Li^+
[6] = S. aureus, Li^+ 197 mM (1380 ppm), Li2CO3
[7] = ATCC11229, read-out: MIC active/aequeous, E. coli, Li^+ 329 mM (2305 ppm), Li2CO3

## [Na+].[O-][n+]1ccccc1[S-] [Sodium pyrithione]
E. coli strain ATCC11229; Li^+ 197 mM (1380 ppm), Li2CO3
  MIC ratio (MICwithout Li/MICLi): 3

## N#CSCSC#N [Methylene bis(thiocyanate)]
[1]; [2]
  MIC ratio (MICwithout Li/MICLi): 4.04

## O=c1[nH]sc2ccccc12 [Benzisothiazolinone (BIT), Benzisothiazolinone]
S. aureus
  MIC ratio (MICwithout Li/MICLi): 2
[1]; [3]
  MIC ratio (MICwithout Li/MICLi): >2

## C=O [Formaldehyde]
Bacterial strain rOmyAK; Li^+ 197 mM (1380 ppm), Li2CO3
  MIC: 11800 µM and 354 µg/mL
  MIC ratio (MICwithout Li/MICLi): >3
Bacterial strain rOmyAK; no Li^+
  MIC: > 35400 µM and > 1060 µg/mL
[1]
  MIC ratio (MICwithout Li/MICLi): >10
E. coli strain ATCC11229; Li^+ 197 mM (1380 ppm), Li2CO3
  MIC ratio (MICwithout Li/MICLi): >2
E. coli strain ATCC11229; [4]
  MIC: 590 µM and 17.7 µg/mL
E. coli strain ATCC11229; [5]
  MIC: > 1180 µM and > 35.4 µg/mL

## Oc1ccccc1-c1ccccc1 [2-Phenylphenol (OPP), 2-Phenylphenol]
rOPP strain; Li^+ 172 mM (1205 ppm)
  MIC: 260 µM and 45 µg/mL
  MIC ratio (MICwithout Li/MICLi): 2
rOPP strain; Li^+ 197 mM (1380 ppm)
  MIC: 2080 µM and 354 µg/mL
  MIC ratio (MICwithout Li/MICLi): >4.5
rOPP strain; Li^+ 329 mM (2305 ppm)
  MIC: 1040 µM and 177 µg/mL
  MIC ratio (MICwithout Li/MICLi): >9
[1]; S. aureus, Li^+ 53 mM (370 ppm), Li2CO3
  MIC ratio (MICwithout Li/MICLi): 2
[1]; S. aureus, Li^+ 67 mM (470 ppm), LiOH
  MIC ratio (MICwithout Li/MICLi): 10
[1]; Li^+ 53 mM (370 ppm), Li2CO3
  MIC: 880 µM and 150 µg/mL
[1]; Li^+ 67 mM (470 ppm), LiOH
  MIC: 180 µM and 30 µg/mL
[1]; no Li^+
  MIC: 1760 µM and 300 µg/mL
E. coli strain ATCC11229; Li^+ 197 mM (1380 ppm), Li2CO3
  MIC ratio (MICwithout Li/MICLi): 1.5
E. coli strain ATCC11229; [4]
  MIC: 2080 µM and 354 µg/mL
E. coli strain ATCC11229; [5]
  MIC: 3120 µM and 531 µg/mL

## O=S(=O)(C(Cl)(Cl)Cl)C(Cl)(Cl)Cl [Hexachlorodimethyl sulfone]
[1]; [2]
  MIC ratio (MICwithout Li/MICLi): 1.33
E. coli strain ATCC11229; Li^+ 197 mM (1380 ppm), Li2CO3
  MIC ratio (MICwithout Li/MICLi): 1.67

## [Li+] [Li^+]
Bacterial strain rOmyAK; rOmy AK strain, lithium ions via Li2CO3, no biocide
  antimicrobial effect of lithium ions provided alone: no antimicrobial effect
Bacterial strain rOmyAK; rOmy AK, no MIT, 329 mM Li^+ (Li2CO3) alone
  bacterial count: ≥1000 cfu/plate
[1]; no CMIT/MIT, 197 mM Li^+ (Li2CO3) alone
  bacterial count: ≥1000 cfu/plate
[1]; no Sodium pyrithione, 96 mM Li^+ (lithium citrate) alone
  bacterial count: ≥1000 cfu/plate
[1]; lithium ions via Li2CO3, no biocide
  antimicrobial effect of lithium ions provided alone: no antimicrobial effect
[1]; lithium ions via lithium citrate, no biocide
  antimicrobial effect of lithium ions provided alone: no antimicrobial effect
E. coli strain ATCC11229; no 4-chloro-3-methylphenol, 197 mM Li^+ (Li2CO3) alone
  bacterial count: ≥100 cfu/plate
E. coli strain ATCC11229; E. coli strain, lithium ions via Li2CO3, no biocide
  antimicrobial effect of lithium ions provided alone: no antimicrobial effect

## Polyethoxyethoxyethylguanidinium hexachloride
E. coli strain ATCC11229; Li^+ 197 mM (1380 ppm), Li2CO3
  MIC ratio (MICwithout Li/MICLi): >1.33
E. coli strain ATCC11229; Li^+ 423 mM (2964 ppm), Li2CO3
  MIC ratio (MICwithout Li/MICLi): >8

## CCCCCCCCCCCCN=C(N)N.Cl [Guanidinedodecyl monochloride]
E. coli strain ATCC11229; Li^+ 197 mM (1380 ppm), Li2CO3
  MIC ratio (MICwithout Li/MICLi): >2.4

## OC1OCCOC1O (stereo not shown) [1,6-Dihydroxy-2,5-dioxane]
Bacterial strain rOmyAK; Li^+ 197 mM (1380 ppm), Li2CO3
  MIC: 8700 µM and 1060 µg/mL
  MIC ratio (MICwithout Li/MICLi): >1.5
Bacterial strain rOmyAK; Li^+ 423 mM (2964 ppm), Li2CO3
  MIC: 5800 µM and 708 µg/mL
  MIC ratio (MICwithout Li/MICLi): >2.25
Bacterial strain rOmyAK; no Li^+
  MIC: 3100 µM and > 1590 µg/mL

## O=[N+]([O-])C(Br)(CO)CO [Bronopol]
[1]; S. aureus, Li^+ 172 mM (1205 ppm), Li2CO3
  MIC ratio (MICwithout Li/MICLi): 6
[1]; [6]
  MIC ratio (MICwithout Li/MICLi): 2
[1]; [2]
  MIC ratio (MICwithout Li/MICLi): 6
[1]; [3]
  MIC ratio (MICwithout Li/MICLi): 20
[1]; Li^+ 172 mM (1205 ppm), Li2CO3
  MIC: 150 µM and 30 µg/mL
[1]; Li^+ 197 mM (1380 ppm), Li2CO3
  MIC: 450 µM and 90 µg/mL
[1]; Li^+ 329 mM (2305 ppm), Li2CO3
  MIC: 150 µM and 30 µg/mL
[1]; Li^+ 423 mM (2964 ppm), Li2CO3
  MIC: 50 µM and 9 µg/mL
[1]; no Li^+
  MIC: 900 µM and 180 µg/mL
E. coli strain ATCC11229; Li^+ 172 mM (1205 ppm), Li2CO3
  MIC ratio (MICwithout Li/MICLi): >3.75
E. coli strain ATCC11229; Li^+ 197 mM (1380 ppm), Li2CO3
  MIC ratio (MICwithout Li/MICLi): 3
E. coli strain ATCC11229; ATCC11229, E. coli, Li^+ 172 mM (1205 ppm), Li2CO3, read-out: MIC active/aequeous
  MIC: 120 µM and 24 µg/mL
E. coli strain ATCC11229; ATCC11229, E. coli, Li^+ 197 mM (1380 ppm), Li2CO3, read-out: MIC active/aequeous
  MIC: 180 µM and 35.4 µg/mL
E. coli strain ATCC11229; ATCC11229, E. coli, no Li^+, read-out: MIC active/aequeous
  MIC: 530 µM and 106 µg/mL

## Cc1cc(O)ccc1Cl [4-Chloro-3-methylphenol]
[1]; [3]
  MIC ratio (MICwithout Li/MICLi): 1.5
[1]; Li^+ 423 mM (2964 ppm), Li2CO3
  MIC: 2480 µM and 354 µg/mL
[1]; no Li^+
  MIC: 3720 µM and 531 µg/mL
E. coli strain ATCC11229; 88.5 ppm 4-chloro-3-methylphenol, 197 mM Li^+
  bacterial count: ≥100 cfu/plate
E. coli strain ATCC11229; 88.5 ppm 4-chloro-3-methylphenol, no Li^+
  bacterial count: ≥1000 cfu/plate
E. coli strain ATCC11229; Li^+ 197 mM (1380 ppm), Li2CO3
  MIC ratio (MICwithout Li/MICLi): 2
E. coli strain ATCC11229; Li^+ 329 mM (2305 ppm), Li2CO3
  MIC ratio (MICwithout Li/MICLi): 4
E. coli strain ATCC11229; [4]
  MIC: 177 µg/mL and 1240 µM
E. coli strain ATCC11229; [7]
  MIC: 620 µM and 88.5 µg/mL
E. coli strain ATCC11229; [5]
  MIC: 354 µg/mL and 2480 µM

## CN1CSC(=S)N(C)C1 [3.5-Dimethyltetrahydro-1,3,5-thiadiazine-2-]
[1]; [3]
  MIC ratio (MICwithout Li/MICLi): >2.5
[1]; Li^+ 423 mM (2964 ppm), Li2CO3
  MIC: 440 µM and 70.8 µg/mL
[1]; no Li^+
  MIC: > 1090 µM and > 177 µg/mL
E. coli strain ATCC11229; Li^+ 329 mM (2305 ppm), Li2CO3
  MIC ratio (MICwithout Li/MICLi): 1.25
E. coli strain ATCC11229; [7]
  MIC: 870 µM and 142 µg/mL
E. coli strain ATCC11229; [5]
  MIC: 1090 µM and 177 µg/mL

## O=CCCCC=O [Glutaraldehyde]
[1]; [6]
  MIC ratio (MICwithout Li/MICLi): >10
[1]; Li^+ 197 mM (1380 ppm), Li2CO3
  MIC: 40 µM and 3.54 µg/mL
[1]; no Li^+
  MIC: > 350 µM and > 35.4 µg/mL
